Assay results published in patent US20130171163A1, “Inhibition of LAR Phosphatase to Enhance Therapeutic Angiogenesis” (priority 2010, published 2013).

Columns and labels:
[1] = test system: wild-type and LAR−/− mice; assay: In vivo angiogenesis assay (Matrigel plug); parameters: species or system mouse; settings: in the presence of PPP
Description: The Matrigel plug assay was used to assess in vivo angiogenesis. […] Mice were sacrificed after 10 days and the plugs were carefully dissected from the mice. The plugs were weighed, analyzed histologically or for hemoglobin content using Drabkin hemoglobin assay kit (Sigma Chemical Co., St. Louis, Mo.). Hemoglobin levels in the Matrigel plugs correlate well with blood vessel growth (Volin et al., Am. J. Pathol. 159:1521 (2001)). The Matrigel plugs were homogenized on ice and centrifuged. Fifty μl of the supernatant were mixed with 950 μl Drabkin's reagent and the reaction was allowed to develop at room temperature for 30 min. Absorbance was read at 540 nm and hemoglobin concentration was determined by comparison to a standard curve generated using known concentrations of hemoglobin. For histological analysis, Matrigel plugs were formalin-fixed, paraffin-embedded, cut into 5 μm sections, and Massons trichrome-stained. In brief, sections were hydrated in distilled water, incubated in Bouin's fixative for 3 h to overnight, and then washed in running tap water until yellow color disappeared. […] Image J was used to quantify the number of vessel-like structures in each field. Total number of microvessels containing red blood cells and number of capillaries in a high power field (20× magnifications) were counted. […]

[2] = test system: aortic rings from wild-type and LAR−/− mice; assay: Ex vivo angiogenesis assay (aortic ring sprouting); parameters: species or system mouse
Description: The angiogenesis assay was performed as described previously (Huang et al., J. Biol. Chem. 277:10760 (2002)) with some modifications. Thoracic aortas were excised from 8-12-week-old wild-type and LAR knockout male mice (DBA background) and immediately placed into cold medium 199 containing 10% FBS. Clotted blood inside the aortas was flushed with media, and the periadventitial fibroadipose tissue was removed. Aortas were then cut into cross-sectional rings of ˜1-1.5 mm in length. Rings were placed into 60-mm dishes containing 0.4 ml of cold growth factor-reduced Matrigel and then incubated at 37° C. until the Matrigel was polymerized. The aortic rings embedded in the Matrigel were overlaid with 0.5 ml of serum-free endothelial cell growth medium with or without the growth factors. The rings were maintained at 37° C. for up to 10 days with medium changes every 2 days. Vascular sprouting from the rings was examined daily under a Leica microscope (10× magnification), and digital images were obtained. Quantitative analysis of endothelial sprouting was performed using images from day 10, and sprout length was quantified using NIH Image J. The distance from the aortic ring body to the end of the vascular sprouts was measured at three distinct points per ring.

IGF-1Rβ = target: T1, IGF-1Rβ (Homo sapiens, UniProt P08069); assay: IGF-1-induced IGF-1Rβ autophosphorylation in HUVECs (immunoprecipitation/Western); format: cell-based
T1 construct: endogenous in cells; host or cells: HUVEC (Cambrex)
Description: (§1) Human umbilical vein endothelial cells (HUVECs) were purchased from Cambrex (San Diego, Calif.) and were maintained in medium 199 (Mediatech, Inc, Herndon, Va.) containing 90 μg/ml heparin, 30 μg/ml endothelial cell growth supplements (BD Biosciences, Bedford, Mass.), 20% FBS, 50 μg/mL gentamicin, and 50 μg/mL amphotericin. Cultures were maintained at 37° C. in a humidified incubator (95% air, 5% CO2). HUVECs, grown to 80% confluence, were growth arrested by overnight incubation in medium 199 supplemented with 0.1% serum.
(§2) Preparation of cell lysates, immunoprecipitation and immunoblotting were performed as described (Reinmuth et al., Clin. Cancer Res. 8:3259 (2002)).
(§3) Adenoviral infection of nearly confluent HUVECs was performed with indicated multiplicity of infection in medium 199 containing 2% FBS. After 16 h incubation, the cells were quiesced overnight in medium 199 containing 0.1% FBS. Then HUVECs were treated with the indicated agonists in serum-free medium 199.
(§4) The LAR siRNA (sc-35793, containing three siRNAs (SEQ ID NOS:1-3)) and a scrambled, non-silencing siRNA (sc-36869) were obtained from Santa Cruz Biotechnology. […] HUVECs were treated with the indicated agonists in serum-free medium 199 and LAR expression was assessed by Western analysis.

HUVECs = assay: Matrigel morphogenesis assay (endothelial tube/cord formation); format: cell-based, human; settings: 1 μM PPP
Description: Growth factor-reduced Matrigel was thawed at 4° C. on ice and 300 μl/well were added to a 24-well plate prechilled at −20° C. using a cold pipette. Matrigel was allowed to polymerize for 30 min at 37° C. HUVECs were either left uninfected or were infected with AdLAR or Adβ-gal. In a separate set of experiments, HUVECs were transfected with LAR siRNA or control siRNA as described above. […] In vitro tube formation was assessed after 5 h incubation. Cell cultures were observed under a phase contrast microscope and photographed in five different random fields (10× magnification). The mean tube length per field was quantified using NIH Image J.

Akt, eNOS and ERK1/2 = assay: IGF-1-induced phosphorylation of Akt, eNOS and ERK1/2 in HUVECs (Western); format: cell-based, human; settings: 100 ng/mL IGF-1, AdLAR at 2.5 MOI
Description: as §1, §2, §3, §4

T1 sequence (P08069 31-1367): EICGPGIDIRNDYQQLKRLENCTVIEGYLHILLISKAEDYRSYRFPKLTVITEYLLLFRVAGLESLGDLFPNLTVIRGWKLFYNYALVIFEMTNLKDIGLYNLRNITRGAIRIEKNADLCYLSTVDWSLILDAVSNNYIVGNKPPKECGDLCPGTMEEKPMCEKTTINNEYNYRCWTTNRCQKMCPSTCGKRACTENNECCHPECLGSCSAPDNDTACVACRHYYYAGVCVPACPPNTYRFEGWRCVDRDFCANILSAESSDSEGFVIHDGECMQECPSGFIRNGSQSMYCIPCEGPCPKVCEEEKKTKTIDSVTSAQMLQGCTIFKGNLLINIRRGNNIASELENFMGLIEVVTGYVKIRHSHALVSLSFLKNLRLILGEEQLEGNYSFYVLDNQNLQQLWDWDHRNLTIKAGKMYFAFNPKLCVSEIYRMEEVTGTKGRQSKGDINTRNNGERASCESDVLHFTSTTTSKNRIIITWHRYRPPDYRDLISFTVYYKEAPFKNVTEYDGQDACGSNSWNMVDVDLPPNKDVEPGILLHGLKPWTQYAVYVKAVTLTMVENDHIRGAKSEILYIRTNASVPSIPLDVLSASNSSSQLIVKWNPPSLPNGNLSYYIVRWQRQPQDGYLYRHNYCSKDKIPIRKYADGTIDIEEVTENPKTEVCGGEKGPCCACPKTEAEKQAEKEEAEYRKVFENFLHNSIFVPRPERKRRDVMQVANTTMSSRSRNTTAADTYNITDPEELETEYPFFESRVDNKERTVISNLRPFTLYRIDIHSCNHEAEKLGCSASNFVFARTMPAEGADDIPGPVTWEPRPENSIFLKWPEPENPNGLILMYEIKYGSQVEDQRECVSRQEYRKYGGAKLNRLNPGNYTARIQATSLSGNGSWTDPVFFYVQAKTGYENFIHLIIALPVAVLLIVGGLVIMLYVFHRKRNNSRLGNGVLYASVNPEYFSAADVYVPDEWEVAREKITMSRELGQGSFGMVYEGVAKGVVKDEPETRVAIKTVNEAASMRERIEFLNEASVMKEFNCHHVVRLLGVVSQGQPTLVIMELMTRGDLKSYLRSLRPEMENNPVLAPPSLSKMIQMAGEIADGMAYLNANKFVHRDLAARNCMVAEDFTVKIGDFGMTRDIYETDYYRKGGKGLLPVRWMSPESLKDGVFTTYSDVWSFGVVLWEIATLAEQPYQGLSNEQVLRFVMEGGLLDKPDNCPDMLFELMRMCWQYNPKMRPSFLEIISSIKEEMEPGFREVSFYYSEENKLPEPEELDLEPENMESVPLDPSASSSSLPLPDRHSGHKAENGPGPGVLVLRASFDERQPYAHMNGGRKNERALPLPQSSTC

Row | Compound | Number of microvessels in IGF-1 embedded Matrigel plugs ([1]; LAR−/− mice) | Hemoglobin content of IGF-1 embedded Matrigel plugs ([1]; 10 days, significant in LAR−/− mice (P=0.01)) | Mean length of sprouts from IGF-1 treated wild-type and LAR−/− aortic rings ([2]; 1 μM PPP, 10 days in Matrigel) | IGF-1Rβ autophosphorylation in HUVECs treated with IGF-1 (IGF-1Rβ; 1 μM PPP) | IGF-1Rβ autophosphorylation in HUVECs treated with IGF-1, dose dependence (IGF-1Rβ; PPP pretreatment 1 h, 100 ng/mL IGF-1 10 min) | IGF-1-induced cord formation in scrambled siRNA and LAR siRNA transfected HUVECs (HUVECs) | Mean length of newly sprouted vessels from aortic rings ([2]; wild-type and LAR−/− mice, IGF-1 treatment, day 10) | IGF-1-induced phosphorylation of Akt, eNOS and ERK1/2 (Akt, eNOS and ERK1/2)
1 | COc1cc([C@@H]2c3cc4c(cc3[C@H](O)[C@H]3COC(=O)[C@@H]23)OCO4)cc(OC)c1OC [PPP, picropodophyllin] | significantly decreased | decreased in both wild-type and LAR^−/− mice | significantly inhibited | significant inhibition | dose-dependent inhibition | abrogated |  | 
2 | IGF-1: Recombinant human IGF-1 purchased from R&D Systems |  |  |  |  |  |  | significantly enhanced | increased
